From patent US20140249076A1, “AMYLIN-CALCITONIN CHIMERIC PEPTIDES CONJUGATED TO DURATION ENHANCING MOIETIES” (AMYLIN PHARMACEUTICALS, LLC, priority 2011, published 2014)
Numbered stars: 1 amine (or outer) side, 2 acyl side, 3 side chain; on linkers, the order of the positions; unused ones are H or OH. Bridge positions count the residues as written; N and C are the ends. Side chains are listed from the residue outwards. Peptide text beside a SMILES is read from it. * marks the point of attachment. γGlu = O=C(O)[C@H](CCC(=O)[*:2])N[*:1]; Palmitoyl = CCCCCCCCCCCCCCCC(=O)*

These compounds were tested on mice (assay: Forced swim test (FST)). Details: qualitative result; 0.03 mg/kg dosing, as in Example 8.
Assay type: in vivo, mouse
Source text: The forced swim test (FST) is a commonly used paradigm to evaluate antidepressant activity of drugs. The FST is based on measurement of the animal's floating time in a tank filled with water. When rats or mice are forced to swim in a deep cylinder with tepid water they become nearly immobile and cease trying to escape. Without wishing to be bound by any theory, it is believe that this characteristic immobile posture reflects a depressive-like state which is readily influenced by a wide variety of antidepressants. See, e.g., Hedou et al., 2001, Pharmacol, Biochem. Behay. 70:65-76; Chaki et al., 2003, J. Pharmacol. Exp. Ther. 304:818-826; Porsolt et al., 1977, Nature 266:730-732. Antidepressants decrease the immobility time in the FST. Vehicle or test compound can be delivered continuously for two weeks to mice by subcutaneously implanted osmotic pumps prior to the FST. Indeed, any route of administration (e.g., intraperitoneal, subcutaneous, oral and the like) is available. Mice can be placed in the water tank for assessment of climbing, swimming, and immobility over a defined trial session, typically 6 minutes. Test session parameters for mice and rats are typically different, as known in the art.
The forced swim test (FST) is a commonly used paradigm to evaluate antidepressant activity of drugs. […] Specifically, vehicle or test compound was delivered continuously for two weeks to mice by subcutaneously implanted osmotic pumps prior to the FST assay, by methods well known in the art. On day one, the patients were introduced into the tank for a 15 minute pre-swim session. On day two, the patients were placed back into the water tank for assessment of climbing, swimming, and immobility over a 6 minute trial session. The rate of compound infusion was 0.03 mg/kg/day.
In the case of `CCCCCCCCCCCCCCCC(=O)N[C@@H](CCC(=O)NCCCC[C@H](NC(=O)[C@H](Cc1c[nH]cn1)NC(=O)[C@H](CC(C)C)NC(=O)[C@H](CCC(=O)O)NC(=O)[C@H](CCC(N)=O)NC(=O)[C@H](C)NC(=O)[C@H](CC(C)C)NC(=O)[C@H](CCCNC(=N)N)NC(=O)[C@H](CCC(N)=O)NC(=O)[C@H](CC(C)C)NC(=O)[C@H](C)NC(=O)[C@@H]1CSSC[C@H](NC(=O)[C@@H](N)CCCCN)C(=O)N[C@@H](CC(N)=O)C(=O)N[C@@H]([C@@H](C)O)C(=O)N[C@@H](C)C(=O)N[C@@H]([C@@H](C)O)C(=O)N1)C(=O)N[C@@H](CC(C)C)C(=O)N[C@@H](CCC(N)=O)C(=O)N[C@H](C(=O)N[C@@H](Cc1ccc(O)cc1)C(=O)N1CCC[C@H]1C(=O)N[C@@H](CCCNC(=N)N)C(=O)N[C@H](C(=O)N[C@@H](CC(N)=O)C(=O)N[C@H](C(=O)NCC(=O)N[C@@H](CO)C(=O)N[C@@H](CC(N)=O)C(=O)N[C@H](C(=O)N[C@@H](Cc1ccc(O)cc1)C(N)=O)[C@@H](C)O)C(C)C)[C@@H](C)O)[C@@H](C)O)C(=O)O` [Cmpd 186, [K^18ε-(γ-Glu(Nα-C16-Chain))]-Cmpd 17] (H-KCNTATCALQRLAQELHK([γGlu-Palmitoyl])LQTYPRTNVGSNTY-NH2; disulfide 2-7 (inferred); N-terminus assumed), the “FST Assay, 0.03 mg/kg” value is reported as “Inactive”.
For `CCCCCCCCCCCCCCCC(=O)N[C@@H](CCC(=O)NCCCC[C@H](NC(=O)[C@H](CCC(N)=O)NC(=O)[C@H](CC(C)C)NC(=O)[C@H](CCCNC(=N)N)NC(=O)[C@H](Cc1c[nH]cn1)NC(=O)[C@H](CC(C)C)NC(=O)[C@H](CCC(=O)O)NC(=O)[C@H](CCC(N)=O)NC(=O)[C@H](C)NC(=O)[C@H](CC(C)C)NC(=O)[C@H](CCCNC(=N)N)NC(=O)[C@H](CCC(N)=O)NC(=O)[C@H](CC(C)C)NC(=O)[C@H](C)NC(=O)[C@@H]1CSSC[C@H](NC(=O)[C@@H](N)CCCCN)C(=O)N[C@@H](CC(N)=O)C(=O)N[C@@H]([C@@H](C)O)C(=O)N[C@@H](C)C(=O)N[C@@H]([C@@H](C)O)C(=O)N1)C(=O)N[C@@H](Cc1ccc(O)cc1)C(=O)N1CCC[C@H]1C(=O)N[C@@H](CCCNC(=N)N)C(=O)N[C@H](C(=O)N[C@@H](CC(N)=O)C(=O)N[C@H](C(=O)NCC(=O)N[C@@H](CO)C(=O)N[C@@H](CC(N)=O)C(=O)N[C@H](C(=O)N[C@@H](Cc1ccc(O)cc1)C(N)=O)[C@@H](C)O)C(C)C)[C@@H](C)O)C(=O)O` [Cmpd 187, [K^21ε-(γ-Glu(Nα-C16-Chain))]-Cmpd 17] (H-KCNTATCALQRLAQELHRLQK([γGlu-Palmitoyl])YPRTNVGSNTY-NH2; disulfide 2-7 (inferred); N-terminus assumed), the “FST Assay, 0.03 mg/kg” value was “Inactive”.
In the case of `CCCCCCCCCCCCCCCC(=O)N[C@@H](CCC(=O)NCCCC[C@H](NC(=O)[C@@H]1CCCN1C(=O)[C@H](Cc1ccc(O)cc1)NC(=O)[C@@H](NC(=O)[C@H](CCC(N)=O)NC(=O)[C@H](CC(C)C)NC(=O)[C@H](CCCNC(=N)N)NC(=O)[C@H](Cc1c[nH]cn1)NC(=O)[C@H](CC(C)C)NC(=O)[C@H](CCC(=O)O)NC(=O)[C@H](CCC(N)=O)NC(=O)[C@H](C)NC(=O)[C@H](CC(C)C)NC(=O)[C@H](CCCNC(=N)N)NC(=O)[C@H](CCC(N)=O)NC(=O)[C@H](CC(C)C)NC(=O)[C@H](C)NC(=O)[C@@H]1CSSC[C@H](NC(=O)[C@@H](N)CCCCN)C(=O)N[C@@H](CC(N)=O)C(=O)N[C@@H]([C@@H](C)O)C(=O)N[C@@H](C)C(=O)N[C@@H]([C@@H](C)O)C(=O)N1)[C@@H](C)O)C(=O)N[C@H](C(=O)N[C@@H](CC(N)=O)C(=O)N[C@H](C(=O)NCC(=O)N[C@@H](CO)C(=O)N[C@@H](CC(N)=O)C(=O)N[C@H](C(=O)N[C@@H](Cc1ccc(O)cc1)C(N)=O)[C@@H](C)O)C(C)C)[C@@H](C)O)C(=O)O` [Cmpd 188, [K^24ε-(γ-Glu(Nα-C16-Chain))]-Cmpd 17] (H-KCNTATCALQRLAQELHRLQTYPK([γGlu-Palmitoyl])TNVGSNTY-NH2; disulfide 2-7 (inferred); N-terminus assumed), the “FST Assay, 0.03 mg/kg” value is reported as “Inactive”.
`CCCCCCCCCCCCCCCC(=O)N[C@@H](CCC(=O)NCCCC[C@H](N)C(=O)N[C@H]1CSSC[C@@H](C(=O)N[C@@H](C)C(=O)N[C@@H](CC(C)C)C(=O)N[C@@H](CCC(N)=O)C(=O)N[C@@H](CCCNC(=N)N)C(=O)N[C@@H](CC(C)C)C(=O)N[C@@H](C)C(=O)N[C@@H](CCC(N)=O)C(=O)N[C@@H](CCC(=O)O)C(=O)N[C@@H](CC(C)C)C(=O)N[C@@H](Cc2c[nH]cn2)C(=O)N[C@@H](CCCNC(=N)N)C(=O)N[C@@H](CC(C)C)C(=O)N[C@@H](CCC(N)=O)C(=O)N[C@H](C(=O)N[C@@H](Cc2ccc(O)cc2)C(=O)N2CCC[C@H]2C(=O)N[C@@H](CCCNC(=N)N)C(=O)N[C@H](C(=O)N[C@@H](CC(N)=O)C(=O)N[C@H](C(=O)NCC(=O)N[C@@H](CO)C(=O)N[C@@H](CC(N)=O)C(=O)N[C@H](C(=O)N[C@@H](Cc2ccc(O)cc2)C(N)=O)[C@@H](C)O)C(C)C)[C@@H](C)O)[C@@H](C)O)NC(=O)[C@H]([C@@H](C)O)NC(=O)[C@H](C)NC(=O)[C@H]([C@@H](C)O)NC(=O)[C@H](CC(N)=O)NC1=O)C(=O)O` [Cmpd 192, [K^1ε-(γ-Glu(Nα-C16-Chain))]-Cmpd 17] (H-K([γGlu-Palmitoyl])CNTATCALQRLAQELHRLQTYPRTNVGSNTY-NH2; disulfide 2-7 (inferred); N-terminus assumed) was tested, and the “FST Assay, 0.03 mg/kg” value was “Active”.
`CCCCCCCCCCCCCCCC(=O)N[C@@H](CCC(=O)NCCCC[C@H](NC(=O)[C@H](CCC(N)=O)NC(=O)[C@H](CC(C)C)NC(=O)[C@H](C)NC(=O)[C@@H]1CSSC[C@H](NC(=O)[C@@H](N)CCCCN)C(=O)N[C@@H](CC(N)=O)C(=O)N[C@@H]([C@@H](C)O)C(=O)N[C@@H](C)C(=O)N[C@@H]([C@@H](C)O)C(=O)N1)C(=O)N[C@@H](CC(C)C)C(=O)N[C@@H](C)C(=O)N[C@@H](CCC(N)=O)C(=O)N[C@@H](CCC(=O)O)C(=O)N[C@@H](CC(C)C)C(=O)N[C@@H](Cc1c[nH]cn1)C(=O)N[C@@H](CCCNC(=N)N)C(=O)N[C@@H](CC(C)C)C(=O)N[C@@H](CCC(N)=O)C(=O)N[C@H](C(=O)N[C@@H](Cc1ccc(O)cc1)C(=O)N1CCC[C@H]1C(=O)N[C@@H](CCCNC(=N)N)C(=O)N[C@H](C(=O)N[C@@H](CC(N)=O)C(=O)N[C@H](C(=O)NCC(=O)N[C@@H](CO)C(=O)N[C@@H](CC(N)=O)C(=O)N[C@H](C(=O)N[C@@H](Cc1ccc(O)cc1)C(N)=O)[C@@H](C)O)C(C)C)[C@@H](C)O)[C@@H](C)O)C(=O)O` [Cmpd 193, [K^11ε(γ-Glu(Nα-C16-Chain))]-Cmpd 17] (H-KCNTATCALQK([γGlu-Palmitoyl])LAQELHRLQTYPRTNVGSNTY-NH2; disulfide 2-7 (inferred); N-terminus assumed) was tested, and the “FST Assay, 0.03 mg/kg” value was “Inactive”.
In the case of `CCCCCCCCCCCCCCCC(=O)N[C@@H](CCC(=O)NCCCC[C@H](N)C(=O)N[C@@H](CCCCN)C(=O)N[C@H]1CSSC[C@@H](C(=O)N[C@@H](C)C(=O)N[C@@H](CC(C)C)C(=O)N[C@@H](CCC(N)=O)C(=O)N[C@@H](CCCNC(=N)N)C(=O)N[C@@H](CC(C)C)C(=O)N[C@@H](C)C(=O)N[C@@H](CCC(N)=O)C(=O)N[C@@H](CCC(=O)O)C(=O)N[C@@H](CC(C)C)C(=O)N[C@@H](Cc2c[nH]cn2)C(=O)N[C@@H](CCCNC(=N)N)C(=O)N[C@@H](CC(C)C)C(=O)N[C@@H](CCC(N)=O)C(=O)N[C@H](C(=O)N[C@@H](Cc2ccc(O)cc2)C(=O)N2CCC[C@H]2C(=O)N[C@@H](CCCNC(=N)N)C(=O)N[C@H](C(=O)N[C@@H](CC(N)=O)C(=O)N[C@H](C(=O)NCC(=O)N[C@@H](CO)C(=O)N[C@@H](CC(N)=O)C(=O)N[C@H](C(=O)N[C@@H](Cc2ccc(O)cc2)C(N)=O)[C@@H](C)O)C(C)C)[C@@H](C)O)[C@@H](C)O)NC(=O)[C@H]([C@@H](C)O)NC(=O)[C@H](C)NC(=O)[C@H]([C@@H](C)O)NC(=O)[C@H](CC(N)=O)NC1=O)C(=O)O` [Cmpd 195, Kε-(γ-Glu(Nα-C16-Chain))-Cmpd 17] (H-K([γGlu-Palmitoyl])KCNTATCALQRLAQELHRLQTYPRTNVGSNTY-NH2; disulfide 3-8; N-terminus assumed), the “FST Assay, 0.03 mg/kg” value is reported as “Active”.
